Values of other authors, collected in patent US20050084550A1, “Weight reduction and maintenance method for animals” (International Flora Technologies, priority 2001, published 2005).

How the values were obtained:
food intake in chickens = details: appetite suppressant
food intake in mice = details: appetite suppressant
food intake in rats = details: appetite suppressant

CO[C@H]1[C@@H](OC)C[C@@H](O[C@@H]2O[C@H](CO)[C@@H](O)[C@H](O)[C@H]2O)/C(=C\C#N)[C@@H]1O [simmondsin]
food intake (food intake in chickens): reduces food intake
solubility in hexane (hexane): not soluble
solubility in jojoba oil (jojoba oil): not soluble
food intake (food intake in mice): reduces food intake
food intake (food intake in rats): reduces food intake
